Laboratory results as given in ChEMBL document CHEMBL5055626 (J Med Chem, 2021).
Where a SMILES comes first, the peptide text is derived from it. Bridges are numbered along the chain shown (N, C = ends).

Tests used:
[1] = target: T1, Neuronal acetylcholine receptor subunit alpha-7 (Rattus norvegicus, UniProt Q05941); experiment: Antagonist activity at rat alpha7 nAChR expressed in xenopus oocytes assessed as inhibition of Ach- induced response at -100 mV holding potential incubated for 200 secs followed by acetyl choline stimulation by two- electrode voltage-clamp based electrophysiological method; assay type: cell-based, Oocyte
[2] = target: Neuronal acetylcholine receptor; alpha3/beta2 (Rattus norvegicus, UniProt P04757+P12390); experiment: Antagonist activity at rat alpha3beta2 nAChR expressed in xenopus oocytes assessed as inhibition of Ach- induced response at -70 mV holding potential preincubated for 5 mins followed by Ach stimulation by voltage-clamp based electrophysiological method; assay type: cell-based, Oocyte
[3] = Antagonist activity at rat alpha6/ alpha3beta2beta3 nAChR expressed in xenopus oocytes assessed as inhibition of Ach- induced response at -70 mV holding potential preincubated for 5 mins followed by Ach stimulation by voltage-clamp based electrophysiological method; assay type: cell-based; conditions: Oocyte
[4] = target: T1, Neuronal acetylcholine receptor subunit alpha-7; experiment: Antagonist activity at rat alpha7 nAChR expressed in xenopus oocytes assessed as inhibition of Ach- induced response at -70 mV holding potential preincubated for 5 mins followed by Ach stimulation by voltage-clamp based electrophysiological method; assay type: cell-based, Oocyte
[5] = target: T1, Neuronal acetylcholine receptor subunit alpha-7; experiment: Antagonist activity at rat alpha7 nAChR expressed in xenopus oocytes assessed as inhibition of Ach- induced response at -80 mV holding potential incubated for 200 secs followed by Ach stimulation by voltage-clamp based electrophysiological method; assay type: cell-based, Oocyte
[6] = target: T2, Neuronal acetylcholine receptor; alpha3/beta4 (Rattus norvegicus, UniProt P04757+P12392); experiment: Antagonist activity at rat alpha3beta4 nAChR expressed in xenopus oocytes assessed as inhibition of Ach- induced response at -80 mV holding potential incubated for 200 secs followed by Ach stimulation by voltage-clamp based electrophysiological method; assay type: cell-based, Oocyte
[7] = target: T3, Nicotinic acetylcholine receptor alpha6/alpha3/beta4 (Homo sapiens, UniProt P30926+P32297+Q15825); experiment: Antagonist activity at rat alpha6/alpha3beta4 nAChR; assay type: protein-complex assay; conditions: target entry is the homologue from another species
[8] = Antagonist activity at rat alpha6/ alpha3beta2beta3 nAChR
[9] = target: T2, Neuronal acetylcholine receptor; alpha3/beta4; experiment: Antagonist activity at rat alpha3beta4 nAChR; assay type: protein-complex assay
[10] = target: T3, Nicotinic acetylcholine receptor alpha6/alpha3/beta4; experiment: Antagonist activity at rat alpha6/alpha3beta4 nAChR expressed in xenopus oocytes assessed as inhibition of Ach- induced response at -70 mV holding potential preincubated for 5 mins followed by Ach stimulation by voltage-clamp based electrophysiological method; assay type: cell-based, Oocyte
[11] = target: T2, Neuronal acetylcholine receptor; alpha3/beta4; experiment: Antagonist activity at rat alpha3beta4 nAChR expressed in xenopus oocytes assessed as inhibition of Ach- induced response at -70 mV holding potential preincubated for 5 mins followed by Ach stimulation by voltage-clamp based electrophysiological method; assay type: cell-based, Oocyte

T2 sequence (P04757 whole entry): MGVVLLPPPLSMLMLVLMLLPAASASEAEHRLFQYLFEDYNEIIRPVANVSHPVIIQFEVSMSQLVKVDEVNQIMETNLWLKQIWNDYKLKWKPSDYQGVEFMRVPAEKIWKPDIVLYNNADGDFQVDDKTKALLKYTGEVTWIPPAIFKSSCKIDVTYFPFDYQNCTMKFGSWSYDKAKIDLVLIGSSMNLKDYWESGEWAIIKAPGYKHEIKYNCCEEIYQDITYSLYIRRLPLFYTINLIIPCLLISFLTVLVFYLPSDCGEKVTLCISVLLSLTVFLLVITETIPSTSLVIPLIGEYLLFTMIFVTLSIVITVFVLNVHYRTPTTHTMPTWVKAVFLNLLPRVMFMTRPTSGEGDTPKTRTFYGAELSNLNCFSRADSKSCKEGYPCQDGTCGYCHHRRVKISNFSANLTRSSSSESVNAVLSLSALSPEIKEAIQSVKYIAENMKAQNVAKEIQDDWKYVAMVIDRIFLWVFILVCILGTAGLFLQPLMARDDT
T2 sequence (P12392 whole entry): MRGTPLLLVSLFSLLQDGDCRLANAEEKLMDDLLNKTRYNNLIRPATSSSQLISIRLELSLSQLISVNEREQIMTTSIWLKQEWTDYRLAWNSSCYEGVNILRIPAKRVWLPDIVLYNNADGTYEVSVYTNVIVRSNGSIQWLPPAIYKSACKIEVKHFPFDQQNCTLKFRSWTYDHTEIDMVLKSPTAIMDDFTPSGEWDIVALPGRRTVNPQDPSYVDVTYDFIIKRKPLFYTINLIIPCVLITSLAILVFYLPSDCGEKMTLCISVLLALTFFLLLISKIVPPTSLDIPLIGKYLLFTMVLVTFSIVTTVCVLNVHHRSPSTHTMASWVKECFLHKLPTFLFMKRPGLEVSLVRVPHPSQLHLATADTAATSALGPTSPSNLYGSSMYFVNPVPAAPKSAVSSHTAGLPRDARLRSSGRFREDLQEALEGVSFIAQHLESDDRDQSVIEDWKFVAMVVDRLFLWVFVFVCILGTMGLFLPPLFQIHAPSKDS
T3 sequence (P30926 whole entry): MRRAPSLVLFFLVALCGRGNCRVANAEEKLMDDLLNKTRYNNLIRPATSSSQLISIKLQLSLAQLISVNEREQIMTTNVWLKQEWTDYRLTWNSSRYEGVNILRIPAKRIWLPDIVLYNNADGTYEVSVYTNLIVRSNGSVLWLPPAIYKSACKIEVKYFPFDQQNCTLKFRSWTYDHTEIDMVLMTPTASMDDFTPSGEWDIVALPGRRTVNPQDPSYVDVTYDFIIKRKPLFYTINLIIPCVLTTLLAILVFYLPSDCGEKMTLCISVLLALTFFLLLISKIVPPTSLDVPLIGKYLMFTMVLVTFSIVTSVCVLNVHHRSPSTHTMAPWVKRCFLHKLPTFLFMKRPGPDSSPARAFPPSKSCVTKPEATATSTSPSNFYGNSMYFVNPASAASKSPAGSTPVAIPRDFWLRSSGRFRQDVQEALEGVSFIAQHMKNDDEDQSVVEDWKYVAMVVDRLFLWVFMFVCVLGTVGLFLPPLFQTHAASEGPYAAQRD
T3 sequence (P32297 whole entry): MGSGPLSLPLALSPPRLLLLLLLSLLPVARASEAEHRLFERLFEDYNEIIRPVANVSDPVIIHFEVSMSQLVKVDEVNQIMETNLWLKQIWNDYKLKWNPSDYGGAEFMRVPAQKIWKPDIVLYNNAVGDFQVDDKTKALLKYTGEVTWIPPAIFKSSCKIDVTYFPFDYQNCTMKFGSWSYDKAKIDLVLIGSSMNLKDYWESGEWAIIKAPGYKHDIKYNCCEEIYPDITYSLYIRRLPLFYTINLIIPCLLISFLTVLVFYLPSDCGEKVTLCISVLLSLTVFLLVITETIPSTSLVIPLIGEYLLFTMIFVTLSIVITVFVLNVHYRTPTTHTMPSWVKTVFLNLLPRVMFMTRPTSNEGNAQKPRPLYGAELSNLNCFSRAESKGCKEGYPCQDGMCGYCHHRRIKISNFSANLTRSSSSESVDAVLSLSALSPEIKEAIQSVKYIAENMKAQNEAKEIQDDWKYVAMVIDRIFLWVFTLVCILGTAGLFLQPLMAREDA
T3 sequence (Q15825 whole entry): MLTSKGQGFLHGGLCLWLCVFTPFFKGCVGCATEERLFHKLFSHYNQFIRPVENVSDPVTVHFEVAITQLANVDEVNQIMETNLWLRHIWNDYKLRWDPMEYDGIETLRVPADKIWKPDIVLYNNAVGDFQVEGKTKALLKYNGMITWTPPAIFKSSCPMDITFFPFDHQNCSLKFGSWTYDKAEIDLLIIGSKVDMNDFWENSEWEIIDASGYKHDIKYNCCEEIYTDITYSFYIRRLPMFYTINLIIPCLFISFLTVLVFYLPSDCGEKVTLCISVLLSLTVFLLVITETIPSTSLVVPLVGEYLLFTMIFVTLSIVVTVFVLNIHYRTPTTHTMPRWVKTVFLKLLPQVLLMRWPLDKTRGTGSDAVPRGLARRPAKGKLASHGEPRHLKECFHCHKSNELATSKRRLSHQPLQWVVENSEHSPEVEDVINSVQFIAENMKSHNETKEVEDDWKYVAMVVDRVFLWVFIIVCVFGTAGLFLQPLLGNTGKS
T1 sequence (Q05941 whole entry): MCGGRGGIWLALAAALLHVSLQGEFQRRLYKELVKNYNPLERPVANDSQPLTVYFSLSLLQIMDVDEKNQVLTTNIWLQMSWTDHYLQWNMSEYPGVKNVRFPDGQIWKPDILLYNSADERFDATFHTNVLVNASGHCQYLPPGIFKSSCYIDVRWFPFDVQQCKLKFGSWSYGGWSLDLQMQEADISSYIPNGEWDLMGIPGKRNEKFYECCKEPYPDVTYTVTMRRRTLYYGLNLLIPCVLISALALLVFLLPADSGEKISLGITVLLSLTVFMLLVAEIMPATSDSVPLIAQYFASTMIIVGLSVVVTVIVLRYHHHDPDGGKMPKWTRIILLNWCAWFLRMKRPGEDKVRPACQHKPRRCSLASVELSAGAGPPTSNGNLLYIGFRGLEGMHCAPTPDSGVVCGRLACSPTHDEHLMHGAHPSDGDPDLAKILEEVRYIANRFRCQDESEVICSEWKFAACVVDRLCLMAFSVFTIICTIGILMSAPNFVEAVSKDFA
Chain of Neuronal acetylcholine receptor; alpha3/beta2 (P04757 whole entry): as the sequence (P04757 whole entry) above
Chain of Neuronal acetylcholine receptor; alpha3/beta2 (P12390 whole entry): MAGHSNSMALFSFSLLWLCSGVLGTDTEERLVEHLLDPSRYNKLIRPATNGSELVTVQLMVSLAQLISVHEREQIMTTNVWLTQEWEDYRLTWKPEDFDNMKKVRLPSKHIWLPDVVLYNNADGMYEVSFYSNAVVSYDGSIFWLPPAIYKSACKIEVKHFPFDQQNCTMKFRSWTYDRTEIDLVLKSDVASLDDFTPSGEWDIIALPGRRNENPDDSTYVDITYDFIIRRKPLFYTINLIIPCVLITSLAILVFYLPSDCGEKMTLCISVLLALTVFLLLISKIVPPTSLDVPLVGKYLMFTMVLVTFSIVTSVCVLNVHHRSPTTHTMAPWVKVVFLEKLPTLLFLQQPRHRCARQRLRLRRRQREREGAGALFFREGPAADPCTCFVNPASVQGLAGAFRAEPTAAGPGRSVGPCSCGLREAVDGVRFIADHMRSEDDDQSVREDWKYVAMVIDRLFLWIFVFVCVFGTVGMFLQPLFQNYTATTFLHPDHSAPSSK

## C[C@@H]1NC(=O)[C@@H]2CSSC[C@H](NC(=O)CN)C(=O)N[C@@H](CSSC[C@@H](C(N)=O)NC(=O)[C@H](CCCNC(=N)N)NC(=O)[C@H](Cc3c[nH]c4ccccc34)NC1=O)C(=O)N[C@@H](CO)C(=O)N[C@@H](CC(=O)O)C(=O)N1CCC[C@H]1C(=O)N[C@@H](CCCNC(=N)N)C(=O)N2
[1]
  IC50: 69 nM

## CC(C)[C@@H]1NC(=O)[C@H](Cc2cnc[nH]2)NC(=O)[C@@H]2CCCN2C(=O)[C@H](CC(N)=O)NC(=O)[C@H](CC(N)=O)NC(=O)[C@H](C(C)C)NC(=O)[C@H](CCCNC(=N)N)NC(=O)[C@H]2CSSC[C@H](NC(=O)[C@H](CCC(=O)O)NC(=O)[C@@H](N)CC(=O)O)C(=O)N[C@@H](CSSC[C@@H](C(=O)N[C@@H](CCCNC(=N)N)C(=O)N[C@@H](CCCNC(=N)N)C(=O)N[C@@H](CCCNC(=N)N)C(=O)O)NC1=O)C(=O)N[C@@H](CO)C(=O)N[C@@H](CC(N)=O)C(=O)N1CCC[C@H]1C(=O)N[C@@H](C)C(=O)N2
[2]
  IC50: 6 nM
[3]
  IC50: 60 nM
[4]
  IC50: 2 nM

## C[C@H](N)C(=O)N[C@H]1CSSC[C@@H]2NC(=O)[C@H](CCCNC(=N)N)NC(=O)[C@H](CCCNC(=N)N)NC(=O)[C@H](CC(=O)O)NC(=O)[C@H](CO)NC(=O)[C@H](CSSC[C@H](C(N)=O)NC(=O)[C@H](CCCNC(=N)N)NC(=O)[C@H](Cc3c[nH]c4ccccc34)NC(=O)[C@H](CCCNC(=N)N)NC2=O)NC1=O
[4]
  IC50: 440 nM

## CC(C)[C@@H]1NC(=O)[C@H](Cc2cnc[nH]2)NC(=O)[C@@H]2CCCN2C(=O)[C@H](CC(N)=O)NC(=O)[C@H](CC(N)=O)NC(=O)[C@H](C(C)C)NC(=O)[C@H](CCCNC(=N)N)NC(=O)[C@@H]2CSSC[C@H](NC(=O)[C@H](CCC(=O)O)NC(=O)[C@@H](N)CC(=O)O)C(=O)N[C@@H](CSSC[C@@H](C(=O)N[C@@H](CCCNC(=N)N)C(=O)N[C@@H](CCCNC(=N)N)C(=O)N[C@@H](CCCNC(=N)N)C(=O)O)NC1=O)C(=O)N[C@@H](CO)C(=O)N[C@@H](CC(N)=O)C(=O)N1CCC[C@H]1C(=O)N[C@@H](C)C(=O)N2
[5]
  IC50: 5 nM
[6]
  IC50: 3 nM

## CC(C)C[C@@H]1NC(=O)[C@H](C(C)C)NC(=O)[C@H](C)NC(=O)[C@@H]2CSSC[C@H](NC(=O)CN)C(=O)N[C@@H](CSSC[C@H](C(=O)NCC(=O)O)NC(=O)[C@H](Cc3ccc(O)cc3)NC1=O)C(=O)N[C@@H](CO)C(=O)N[C@@H]([C@@H](C)O)C(=O)N1CC(O)C[C@H]1C(=O)N1CCC[C@H]1C(=O)N2 (stereo partly specified)
[7]
  IC50: 12 nM
[8]
  IC50: 1300 nM

## CC(C)C[C@@H]1NC(=O)[C@H](C(C)C)NC(=O)[C@H](C)NC(=O)[C@@H]2CSSC[C@H](NC(=O)CN)C(=O)N[C@@H](CSSC[C@H](C(=O)NCC(=O)O)NC(=O)[C@H](Cc3ccc(O)cc3)NC1=O)C(=O)N[C@@H](CO)C(=O)N[C@@H]([C@@H](C)O)C(=O)N1CCC[C@H]1C(=O)N1CCC[C@H]1C(=O)N2
[9]
  IC50: 37.7 nM
[10]
  IC50: 1.5 nM
[2]
  IC50: 5.7 nM
[3]
  IC50: 0.258 nM

## CC(C)C[C@@H]1NC(=O)[C@H](C(C)C)NC(=O)[C@H](C)NC(=O)[C@@H]2CSSC[C@H](NC(=O)CN)C(=O)N[C@@H](CSSC[C@H](C(=O)NCC(=O)O)NC(=O)[C@H](Cc3ccc(O)cc3)NC1=O)C(=O)N[C@@H](CO)C(=O)N[C@@H](C)C(=O)N1CC(O)C[C@H]1C(=O)N1CCC[C@H]1C(=O)N2 (stereo partly specified)
[10]
  IC50: 58.1 nM
[11]
  IC50: 1200 nM

## CC[C@H](C)[C@@H]1NC(=O)[C@H](Cc2cnc[nH]2)NC(=O)[C@@H]2CCCN2C(=O)[C@H](CC(N)=O)NC(=O)[C@H](CC(N)=O)NC(=O)[C@H](C(C)C)NC(=O)[C@H](CC(N)=O)NC(=O)[C@@H]2CSSC[C@H](NC(=O)CN)C(=O)N[C@@H](CSSC[C@@H](C(=O)NCC(N)=O)NC1=O)C(=O)N[C@@H](CO)C(=O)N[C@@H](Cc1cnc[nH]1)C(=O)N1CCC[C@H]1C(=O)N[C@@H](C)C(=O)N2 (H-GCCSHPACNVNNPHICG-NH2; disulfide 2-8, 3-16)
[4]
  IC50: 27 nM
